Measured values published in ChEMBL document CHEMBL5150066, “Synthesis of estrone selenocyanate Compounds, anti-tumor activity evaluation and Structure-activity relationship analysis” (Bioorg Med Chem, 2022).

Key:
[1] = Cytotoxicity against HEK293T cells assessed as inhibition of cell growth incubated for 72 hrs by MTT assay; assay type: toxicity, cell-based, HEK-293T; conditions: human
HeLa = assay: Antiproliferative activity against human HeLa cells assessed as inhibition of cell growth incubated for 72 hrs by MTT assay; assay type: functional, cell-based
HepG2 = assay: Antiproliferative activity against human HepG2 cells assessed as inhibition of cell growth incubated for 72 hrs by MTT assay; assay type: functional, cell-based; conditions: HepG2, 72 h
SK-OV-3 = assay: Antiproliferative activity against human SK-OV-3 cells assessed as inhibition of cell growth incubated for 72 hrs by MTT assay; assay type: functional, cell-based; conditions: SK-OV-3, 72 h
T47D = assay: Antiproliferative activity against human T47D cells assessed as inhibition of cell growth incubated for 72 hrs by MTT assay; assay type: functional, cell-based
MCF7 = assay: Antiproliferative activity against human MCF7 cells assessed as inhibition of cell growth incubated for 72 hrs by MTT assay; assay type: functional, cell-based; conditions: MCF7, 72 h

Row | SMILES | IC50 (HeLa) | IC50 (HepG2) | IC50 (SK-OV-3) | IC50 (T47D) | IC50 (MCF7) | IC50 at 72 h [1]
1 | C[C@]12CC[C@@H]3c4cc(NC(=O)CCCCCCCCC[Se]C#N)c(O)cc4CC[C@H]3[C@@H]1CCC2=O | 13.7 µM | 31 µM | 14.4 µM | 24.6 µM | 9.3 µM | 17.2 µM
2 | C[C@]12CC[C@@H]3c4cc(NC(=O)c5ccc(C[Se]C#N)cc5)c(O)cc4CC[C@H]3[C@@H]1CCC2=O | 26.8 µM | 68.9 µM | 49.5 µM | 37.4 µM | 39.2 µM | 27.2 µM
3 | C[C@]12CC[C@@H]3c4ccc(O)cc4CC[C@H]3[C@@H]1CCC2NC(=O)C[Se]C#N (stereo not given in full) | 70.4 µM | 70.4 µM | 30.5 µM | 73.4 µM | 73.4 µM | 25.4 µM
4 | COc1ccc2c(c1)CC[C@@H]1[C@@H]2CC[C@]2(C)C(OC(=O)c3ccc(C[Se]C#N)cc3)CC[C@@H]12 (stereo not given in full) | 47.5 µM | 35.9 µM | 56.3 µM | > 100 µM | 55.5 µM | 29.7 µM
5 | C[C@]12CC[C@@H]3c4ccc(OCCCC[Se]C#N)cc4CC[C@H]3[C@@H]1CCC2=O | 14 µM | > 100 µM | 49.7 µM | 75.7 µM | 41.1 µM | 42.8 µM
6 | COc1ccc2c(c1)CC[C@@H]1[C@@H]2CC[C@]2(C)C(OC(=O)C[Se]C#N)CC[C@@H]12 (stereo not given in full) | 56.8 µM | 61.1 µM | 52.4 µM | 41.5 µM | 88.3 µM | 45.2 µM
7 | COc1cc2c(cc1O)CC[C@@H]1[C@@H]2CC[C@]2(C)[C@@H](O)CC[C@@H]12 [2-METHOXYESTRADIOL] | 8.6 µM | 2.3 µM | 16.5 µM | 25.2 µM | > 70 µM | 4.6 µM

Continued, in another order:

Row | IC50 (HeLa) | IC50 (HepG2) | IC50 (SK-OV-3) | IC50 (T47D) | IC50 (MCF7) | SMILES | IC50 at 72 h [1]
8 | 13.7 µM | 11 µM | 15.6 µM | 21.8 µM | 17.3 µM | C[C@]12CC[C@@H]3c4cc(NC(=O)CCCC[Se]C#N)c(O)cc4CC[C@H]3[C@@H]1CCC2=O | 18.2 µM
9 | 26.3 µM | 62.5 µM | 53.4 µM | 24.2 µM | 18.8 µM | COc1ccc2c(c1)CC[C@@H]1[C@@H]2CC[C@]2(C)/C(=N/OC(=O)C[Se]C#N)CC[C@@H]12 | 25.2 µM
10 | 18.2 µM | > 100 µM | 54.6 µM | > 100 µM | 48.1 µM | C[C@]12CC[C@@H]3c4ccc(OCCC[Se]C#N)cc4CC[C@H]3[C@@H]1CCC2=O | 43.9 µM
